In patent US20120283216A1, “FUNGICIDAL 2-(BICYCLIC ARYLOXY)CARBOXAMIDES” (priority 2009, published 2012):

Columns and labels:
Type in all cases: in vivo
[1] = test system: Blumeria graminis f. sp. tritici; assay: Test A: wheat powdery mildew, preventive spray on wheat seedlings, visual disease rating; conditions: preventive spray at 40 ppm, rated 8 days after inoculation; for pest or weed control at 40 ppm: Blumeria graminis, 192 h, read-out: Test A disease control rating (100 = 100% disease control, 0 = no disease control relative to the controls)
Procedure, shortened: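 After 8 days in a 20° C. growth chamber, disease was scored visually as % control versus untreated (100 = full control). Plants had received a run-off spray of 40 ppm (≈800 g/ha label rate) in acetone/water plus surfactant, with spore-dust inoculation one day later.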

Septoria tritici = assay: Test B: wheat leaf blotch, preventive spray on wheat seedlings, visual disease rating; conditions: preventive spray at 40 ppm, rated after 48 h + 19 days; for pest or weed control at 40 ppm: Zymoseptoria tritici, 504 h, read-out: Test B disease control rating (100 = 100% disease control, 0 = no disease control relative to the controls)
Procedure, shortened: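 Visual ratings of percent disease control relative to untreated controls were made 19 days after a 48 h saturated-atmosphere incubation at 20° C. Plants had been spore-inoculated one day after a preventive run-off spray at 40 ppm, equivalent to 800 g/ha.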

Botrytis cinerea = assay: Test C: tomato botrytis, preventive spray on tomato seedlings, visual disease rating; conditions: preventive spray at 40 ppm, rated after 48 h + 3 days; for pest or weed control at 40 ppm: Botrytis cinerea, 120 h, read-out: Test C disease control rating (100 = 100% disease control, 0 = no disease control relative to the controls)
Procedure, shortened: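 Compounds applied at 40 ppm (≈800 g/ha) in acetone/water with surfactant, sprayed to run-off on tomato seedlings. Inoculated next day with B. cinerea spores; 48 h saturated humidity at 20 °C, then 3 days at 27 °C. Visual rating as % disease control versus untreated controls.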

CCC(Oc1ccc2ccc(OC)cc2c1)C(=O)NC(C)(C)C(=O)OC (stereo not drawn) [Compound 84]
Test A disease control rating (100 = 100% disease control, 0 = no disease control relative to the controls) [1]: 0%
Test B disease control rating (100 = 100% disease control, 0 = no disease control relative to the controls) (Septoria tritici): 84%
Test C disease control rating (100 = 100% disease control, 0 = no disease control relative to the controls) (Botrytis cinerea): 100%

C#CC1(NC(=O)C(CC)Oc2ccc3ccc(OC)cc3c2)CCCCC1 (stereo not drawn) [Compound 85]
pest or weed control at 40 ppm [1]: 0%
pest or weed control at 40 ppm (Septoria tritici): 84%
pest or weed control at 40 ppm (Botrytis cinerea): 99%

C#CC(CC)(CC)NC(=O)C(CC)Oc1ccc2ccc(OC)cc2c1 (stereo not drawn) [Compound 86]
Test A disease control rating (100 = 100% disease control, 0 = no disease control relative to the controls) [1]: 0%
Test B disease control rating (100 = 100% disease control, 0 = no disease control relative to the controls) (Septoria tritici): 19%
Test C disease control rating (100 = 100% disease control, 0 = no disease control relative to the controls) (Botrytis cinerea): 19%

CCC(Oc1ccc2ccc(OC)cc2c1)C(=O)NC(C)(C)C#N (stereo not drawn) [Compound 87]
Test A disease control rating (100 = 100% disease control, 0 = no disease control relative to the controls) [1]: 0%
Test B disease control rating (100 = 100% disease control, 0 = no disease control relative to the controls) (Septoria tritici): 100%
Test C disease control rating (100 = 100% disease control, 0 = no disease control relative to the controls) (Botrytis cinerea): 100%

CCC(Oc1ccc2ccc(OC)cc2c1)C(=O)NC(C)(C)COC (stereo not drawn) [Compound 88]
Test A disease control rating (100 = 100% disease control, 0 = no disease control relative to the controls) [1]: 99%
Test B disease control rating (100 = 100% disease control, 0 = no disease control relative to the controls) (Septoria tritici): 100%
Test C disease control rating (100 = 100% disease control, 0 = no disease control relative to the controls) (Botrytis cinerea): 100%

CCC(Oc1ccc2ccc(O)cc2c1)C(=O)NC(C)(C)C (stereo not drawn) [Compound 89]
pest or weed control at 40 ppm [1]: 0%
pest or weed control at 40 ppm (Septoria tritici): 63%
pest or weed control at 40 ppm (Botrytis cinerea): 86%

COCC(C)(C)NC(=O)C(OC)Oc1ccc2ccc(Br)cc2c1 (stereo not drawn) [Compound 90, 2-[(7-bromo-2-naphthalenyl)oxy]-2-methoxy-N-(2-methoxy-1,1-dimethylethyl)acetamide]
pest or weed control at 40 ppm [1]: 100%
pest or weed control at 40 ppm (Septoria tritici): 100%
pest or weed control at 40 ppm (Botrytis cinerea): 100%

CCC(Oc1ccc2ccc(SC)cc2c1)C(=O)NC(C)(C)COC (stereo not drawn) [Compound 91]
Test A disease control rating (100 = 100% disease control, 0 = no disease control relative to the controls) [1]: 97%
Test B disease control rating (100 = 100% disease control, 0 = no disease control relative to the controls) (Septoria tritici): 100%
Test C disease control rating (100 = 100% disease control, 0 = no disease control relative to the controls) (Botrytis cinerea): 100%

CCC(Oc1ccc2ccc(I)cc2c1)C(=O)NC(C)(C)COC (stereo not drawn) [Compound 92]
Test A disease control rating (100 = 100% disease control, 0 = no disease control relative to the controls) [1]: 100%
Test B disease control rating (100 = 100% disease control, 0 = no disease control relative to the controls) (Septoria tritici): 100%
Test C disease control rating (100 = 100% disease control, 0 = no disease control relative to the controls) (Botrytis cinerea): 100%

COC(Oc1ccc2ccc(Br)cc2c1)C(=O)NC(C)(C)C#N (stereo not drawn) [Compound 93]
Test A disease control rating (100 = 100% disease control, 0 = no disease control relative to the controls) [1]: 95%
Test B disease control rating (100 = 100% disease control, 0 = no disease control relative to the controls) (Septoria tritici): 100%
Test C disease control rating (100 = 100% disease control, 0 = no disease control relative to the controls) (Botrytis cinerea): 100%

C#CC(C)(C)NC(=O)C(OC)Oc1ccc2ccc(Br)cc2c1 (stereo not drawn) [Compound 94]
Test A disease control rating (100 = 100% disease control, 0 = no disease control relative to the controls) [1]: 99%
Test B disease control rating (100 = 100% disease control, 0 = no disease control relative to the controls) (Septoria tritici): 100%
Test C disease control rating (100 = 100% disease control, 0 = no disease control relative to the controls) (Botrytis cinerea): 100%

CCC(Oc1ccc2ccc(C#C[Si](C)(C)C)cc2c1)C(=O)NC(C)(C)COC (stereo not drawn) [Compound 96]
Test A disease control rating (100 = 100% disease control, 0 = no disease control relative to the controls) [1]: 0%
Test B disease control rating (100 = 100% disease control, 0 = no disease control relative to the controls) (Septoria tritici): 100%
Test C disease control rating (100 = 100% disease control, 0 = no disease control relative to the controls) (Botrytis cinerea): 99%

C#Cc1ccc2ccc(OC(CC)C(=O)NC(C)(C)COC)cc2c1 (stereo not drawn) [Compound 97, 2-[(7-ethynyl-2-naphthalenyl)oxy]-N-(2-methoxy-1,1-dimethylethyl)-butanamide]
pest or weed control at 40 ppm [1]: 100%
pest or weed control at 40 ppm (Septoria tritici): 100%
pest or weed control at 40 ppm (Botrytis cinerea): 99%

CCC(C)(C)NC(=O)C(OC)Oc1ccc2ccc(Br)cc2c1 (stereo not drawn) [Compound 101]
Test A disease control rating (100 = 100% disease control, 0 = no disease control relative to the controls) [1]: 92%
Test B disease control rating (100 = 100% disease control, 0 = no disease control relative to the controls) (Septoria tritici): 100%
Test C disease control rating (100 = 100% disease control, 0 = no disease control relative to the controls) (Botrytis cinerea): 100%

CCC(Oc1ccc2ccc(Br)cc2c1)C(=O)NC(C)(C)CC (stereo not drawn) [Compound 102]
Test A disease control rating (100 = 100% disease control, 0 = no disease control relative to the controls) [1]: 0%
Test B disease control rating (100 = 100% disease control, 0 = no disease control relative to the controls) (Septoria tritici): 96%
Test C disease control rating (100 = 100% disease control, 0 = no disease control relative to the controls) (Botrytis cinerea): 61%

COCC(C)(C)NC(=O)C(OC)Oc1ccc2ccc(I)cc2c1 (stereo not drawn) [Compound 103, 2-[(7-iodo-2-naphthalenylyl)oxy]-2-methoxy-N-(2-methoxy-1,1-dimethylethyl)acetamide]
Test A disease control rating (100 = 100% disease control, 0 = no disease control relative to the controls) [1]: 100%
Test B disease control rating (100 = 100% disease control, 0 = no disease control relative to the controls) (Septoria tritici): 100%
Test C disease control rating (100 = 100% disease control, 0 = no disease control relative to the controls) (Botrytis cinerea): 100%

COC(Oc1ccc2ccc(I)cc2c1)C(=O)NC(C)(C)C#N (stereo not drawn) [Compound 104]
Test A disease control rating (100 = 100% disease control, 0 = no disease control relative to the controls) [1]: 94%
Test B disease control rating (100 = 100% disease control, 0 = no disease control relative to the controls) (Septoria tritici): 100%
Test C disease control rating (100 = 100% disease control, 0 = no disease control relative to the controls) (Botrytis cinerea): 99%

COCC(C)(C)NC(=O)C(OC)Oc1ccc2ccc(C#C[Si](C)(C)C)cc2c1 (stereo not drawn) [Compound 105]
Test A disease control rating (100 = 100% disease control, 0 = no disease control relative to the controls) [1]: 79%
Test B disease control rating (100 = 100% disease control, 0 = no disease control relative to the controls) (Septoria tritici): 100%
Test C disease control rating (100 = 100% disease control, 0 = no disease control relative to the controls) (Botrytis cinerea): 90%

C#Cc1ccc2ccc(OC(OC)C(=O)NC(C)(C)COC)cc2c1 (stereo not drawn) [Compound 106, 2-[(7-ethynyl-2-naphthalenyl)oxy]-2-methoxy-N-(2-methoxy-1,1-dimethylethyl)acetamide]
pest or weed control at 40 ppm [1]: 100%
pest or weed control at 40 ppm (Septoria tritici): 100%
pest or weed control at 40 ppm (Botrytis cinerea): 99%

CC#Cc1ccc2ccc(OC(CC)C(=O)NC(C)(C)COC)cc2c1 (stereo not drawn) [Compound 107, N-(2-methoxy-1,1-dimethylethyl)-2-[[7-(1-propyn-1-yl)-2-naphthalenyl]oxy]butanamide]
pest or weed control at 40 ppm [1]: 100%
pest or weed control at 40 ppm (Septoria tritici): 100%
pest or weed control at 40 ppm (Botrytis cinerea): 99%

CC#Cc1ccc2ccc(OC(OC)C(=O)NC(C)(C)COC)cc2c1 (stereo not drawn) [Compound 108, 2-methoxy-N-(2-methoxy-1,1-dimethylethyl)-2-[[7-(1-propyn-1-yl)-2-naphthalenyl]oxy]acetamide]
pest or weed control at 40 ppm [1]: 100%
pest or weed control at 40 ppm (Septoria tritici): 100%
pest or weed control at 40 ppm (Botrytis cinerea): 48%

C#Cc1ccc2ccc(OC(CC)C(=O)NC(C)(C)C)cc2c1 (stereo not drawn) [Compound 109, N-(1,1-dimethylethyl)-2-[(7-ethynyl-2-naphthalenyl)oxy]butanamide]
pest or weed control at 40 ppm [1]: 100%
pest or weed control at 40 ppm (Septoria tritici): 100%
pest or weed control at 40 ppm (Botrytis cinerea): 99%

C#Cc1ccc2ccc(OC(CC)C(=O)NC(C)(C)C#N)cc2c1 (stereo not drawn) [Compound 110, N-(1-cyano-1-methylethyl)-2-[(7-ethynyl-2-naphthalenyl)oxy]butanamide]
pest or weed control at 40 ppm [1]: 100%
pest or weed control at 40 ppm (Septoria tritici): 100%
pest or weed control at 40 ppm (Botrytis cinerea): 100%

C#Cc1ccc2ccc(OC(CC)C(=O)NC(C)(C)C#CC)cc2c1 (stereo not drawn) [Compound 111, N-(1,1-dimethyl-2-butyn-1-yl)-2-[(7-ethynyl-2-naphthalenyl)oxy]butanamide]
pest or weed control at 40 ppm [1]: 100%
pest or weed control at 40 ppm (Septoria tritici): 100%
pest or weed control at 40 ppm (Botrytis cinerea): 100%

CCOC(Oc1ccc2ccc(OC)cc2c1)C(=O)NC(C)(C)COC (stereo not drawn) [Compound 113]
Test A disease control rating (100 = 100% disease control, 0 = no disease control relative to the controls) [1]: 97%
Test B disease control rating (100 = 100% disease control, 0 = no disease control relative to the controls) (Septoria tritici): 100%
Test C disease control rating (100 = 100% disease control, 0 = no disease control relative to the controls) (Botrytis cinerea): 99%

CCOC(Oc1ccc2ccc(OC)cc2c1)C(=O)NC(C)(C)C (stereo not drawn) [Compound 114]
pest or weed control at 40 ppm [1]: 90%
pest or weed control at 40 ppm (Septoria tritici): 99%
pest or weed control at 40 ppm (Botrytis cinerea): 99%

C#CC(C)(C)NC(=O)C(OCC)Oc1ccc2ccc(OC)cc2c1 (stereo not drawn) [Compound 115]
Test A disease control rating (100 = 100% disease control, 0 = no disease control relative to the controls) [1]: 79%
Test B disease control rating (100 = 100% disease control, 0 = no disease control relative to the controls) (Septoria tritici): 99%
Test C disease control rating (100 = 100% disease control, 0 = no disease control relative to the controls) (Botrytis cinerea): 97%
